Assay results reported in US9062004B2, “Cannabinoid-2 agonists” (Allergan, Inc., priority 2010, dated 2015).
Like-named read-outs stand apart in the source and are kept apart here.

Key:
[1] = target: human CB1 cannabinoid receptor (Homo sapiens (Human), UniProt P21554); test: Radioligand binding assay, CB1 ([3H]-CP 55,940 competition); settings: plasma membranes of HEK 293 EBNA cells transfected with human CB1; 0.72 nM [3H]-CP 55,940; NA = not active
Protocol: (§1) A. Radioligand Binding Assay
(§2) Plasma membranes prepared from HEK 293 EBNA cells transfected with human CB1 or CB2 cannabinoid receptors ([…] protein, receptor concentration; PerkinElmer) were used for the radioligand binding studies. The composition of incubation buffer for CB1 assay was 50 mM Tris base, 2.5 mM EDTA, 5 mM MgCl2 and 0.5 mg/ml fatty acid free BSA and for CB2 assay was 50 mM Tris base, 2.5 mM EGTA, 5 mM MgCl2 and 1 mg/ml fatty acid free BSA; pH was adjusted to 7.4 by adding 1N HCl. Plasma membranes were diluted with incubation buffer to provide a final protein concentration of 2.4 μg (CB1) or 8 μg (CB2) per well in non-binding surface polystyrene 96-well assay plates (Corning). Compound solutions were prepared in silanized glass tubes and dispensed using pipette tips with SUPERSLIK™ surface. Competition studies were performed using a final concentration of 0.72 nM [^3H]-CP 55,940 (100-180 Ci/mmol, specific activity; PerkinElmer) against test compounds. Non-specific binding was determined using 10 uM of unlabeled CP 55,940. Incubations were performed in 96-well assay plates at a final volume of 200 ul for 90 min (CB1) or 60 min (CB2) at room temperature. Binding reactions were terminated by the addition of ice-cold incubation buffer and rapid filtration through a glass fiber filter using a cell harvester (Inotech). This was followed by 8 additional washes. The glass fiber filter (0.26 mm thickness, 1-1.5 um retention; Inotech) was presoaked in cold incubation buffer containing 0.05% polyethylenimine. The filters were oven-dried at 50° C. for 60 min and counting performed using a Beckman Coulter LS 6500 Multi-Purpose Scintillation Counter (Beckman-Coulter). Binding was determined in duplicate for at least 4 separate experiments.

[2] = target: human CB2 cannabinoid receptor (Homo sapiens (Human), UniProt P34972); test: Radioligand binding assay, CB2 ([3H]-CP 55,940 competition); settings: for CB2 Selectivity: CB2 versus CB1 binding (ratio of CB1 IC50 to CB2 IC50); for IC50: plasma membranes of HEK 293 EBNA cells transfected with human CB2, 0.72 nM [3H]-CP 55,940, NA = not active
Chain of human CB2 cannabinoid receptor (P34972 whole entry): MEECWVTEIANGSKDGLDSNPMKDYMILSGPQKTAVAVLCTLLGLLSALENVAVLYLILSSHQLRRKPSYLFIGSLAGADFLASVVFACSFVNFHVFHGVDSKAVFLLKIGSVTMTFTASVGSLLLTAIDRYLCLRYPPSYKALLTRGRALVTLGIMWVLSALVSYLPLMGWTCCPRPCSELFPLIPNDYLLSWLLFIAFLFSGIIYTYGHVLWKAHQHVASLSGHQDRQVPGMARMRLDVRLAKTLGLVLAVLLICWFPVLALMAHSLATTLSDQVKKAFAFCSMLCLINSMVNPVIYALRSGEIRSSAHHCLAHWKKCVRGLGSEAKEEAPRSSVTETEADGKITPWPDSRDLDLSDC
Protocol: as §1, §2

[3] = test system: mouse isolated vas deferens; test: Mouse isolated vas deferens (MVD) bioassay, electrically stimulated contractions; assay type: cell-based; settings: Mus musculus
[4] = vas deferens of male Swiss Webster mice, electrically evoked contractions, NA = not active, read-out: MVD Assay EC50

Chain of human CB1 cannabinoid receptor (P21554 whole entry): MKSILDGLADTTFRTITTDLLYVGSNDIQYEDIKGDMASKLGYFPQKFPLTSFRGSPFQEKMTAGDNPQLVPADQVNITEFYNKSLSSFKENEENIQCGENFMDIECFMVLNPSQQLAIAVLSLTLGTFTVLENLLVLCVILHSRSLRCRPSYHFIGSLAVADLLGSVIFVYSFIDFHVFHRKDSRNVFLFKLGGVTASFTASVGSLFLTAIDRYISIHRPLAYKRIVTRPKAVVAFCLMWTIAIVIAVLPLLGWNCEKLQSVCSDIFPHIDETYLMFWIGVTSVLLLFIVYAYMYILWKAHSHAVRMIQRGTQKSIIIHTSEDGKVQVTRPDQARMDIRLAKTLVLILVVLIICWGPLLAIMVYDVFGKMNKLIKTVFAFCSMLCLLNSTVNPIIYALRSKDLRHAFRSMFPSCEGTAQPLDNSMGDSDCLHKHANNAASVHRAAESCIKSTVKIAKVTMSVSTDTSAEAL

| Compound | EC50 [3, 4] | IC50 [1] | CB2 Selectivity [2] | IC50 [2] | EC50 ([3]; read-out: MVD Assay EC50 (nM)) |
| --- | --- | --- | --- | --- | --- |
| CCCn1ncc2c(=O)n(C3CC(C)(C)CC(C)(C)C3)ncc21 [Compound 34, 1-Propyl-5-(3,3,5,5-tetramethyl-cyclohexyl)pyrazolo[3,4-d]pyridazin-4-one] |  | 257 nM | 15 | 17 nM | 21 nM |
| CCCn1cc2c(=O)n(C3CC(C)(C)CC(C)(C)C3)ncc2n1 [Compound 35, 2-Propyl-5-(3,3,5,5-tetramethylcyclohexyl)pyrazolo[3,4-d]pyridazin-4-one] |  | > 10000 nM | >42 | 240 nM | 1200 nM |
| CC1(C)CC(n2ncc3c(cnn3CCN3CCOCC3)c2=O)CC(C)(C)C1 [Compound 36, 1-(2-Morpholin-4-ylethyl)-5-(3,3,5,5-tetramethylcyclohexyl)pyrazolo[3,4-d]pyridazin-4-one] | 33 nM | 219 nM | 26 | 8.5 nM |  |
| CC1(C)CC(n2ncc3nn(CCN4CCOCC4)cc3c2=O)CC(C)(C)C1 [Compound 37, 2-(2-Morpholin-4-ylethyl)-5-(3,3,5,5-tetramethylcyclohexyl)pyrazolo[3,4-d]pyridazin-4-one] |  | > 10000 nM | >7 | 1510 nM | 1400 nM |

Further lines, with some results ahead:

| EC50 [3, 4] | Compound | IC50 [1] | CB2 Selectivity [2] | IC50 [2] | EC50 ([3]; read-out: MVD Assay EC50 (nM)) |
| --- | --- | --- | --- | --- | --- |
| 330 nM | CN(C)CCN(C)c1cnn(C2CC(C)(C)CC(C)(C)C2)c(=O)c1Cl [Compound 31, 4-Chloro-5-(2-dimethylaminoethylmethylamino)-2-(3,3,5,5-tetramethyl-cyclohexyl)pyridazin-3-one] | 2630 nM | 132 | 20 nM |  |
| 130 nM | CN(C)CCn1ncc2c(=O)n(C3CC(C)(C)CC(C)(C)C3)ncc21 [Compound 38, 1-(2-Dimethylaminoethyl)-5-(3,3,5,5-tetramethylcyclohexyl)pyrazolo[3,4-d]pyridazin-4-one] | 3980 nM | 38 | 105 nM |  |
